Tests used:
two-spotted spider mites [1] = experiment: Miticidal test on two-spotted spider mite (leaf spray); type: in vivo; conditions: Tetranychus urticae, in Phaseolus vulgaris, 48 h, read-out: Mortality of mites (%)
Description: A piece of non-woven fabric (4.5×5.5 cm) was suspended inside a plastic cup through an incision made in the lid of the plastic cup. After water was poured into the cup, the cup was covered with the lid. A kidney bean leaf (about 3.5×4.5 cm) was then placed on the sufficiently soaked, non-woven fabric. Another kidney bean leaf with two-spotted spider mites (about 30 mite samples) was placed on top of the first leaf, and the fabric and leaves were placed in a thermostatic chamber having a temperature of 25±2° C. and a humidity of 40% overnight. Next morning the top leaf was removed as the mite population had already moved to the lower leaf.
Miticidal formulations containing the compound of the invention (100 ppm and 5 ppm) were prepared by adding an aqueous solution (100 ppm) of Sorpol 355 (manufactured by Tobo Kagaku Co., Ltd.) to a methanol solution of the compound of the invention. These miticidal formulations were sprayed onto the leaves, and the leaves were air-dried and placed in a thermostatic chamber (25±2° C. and a humidity of 50%). The mortality rate of the two-spotted spider mites was calculated after 2 days.

two-spotted spider mites [2] = experiment: Ovicidal test on two-spotted spider mites; type: in vivo, two-spotted spider mite; conditions: Tetranychus urticae, 144 h; 10 ppm spray, ovicidal rate 6 days after spraying
Protocol: A piece of non-woven fabric (4.5×5.5 cm) was suspended inside a plastic cup through an incision made in the lid of the plastic cup. After water was poured into the cup, the cup was covered with the lid. A kidney bean leaf (about 3.5×4.5 cm) was then placed on the sufficiently soaked, non-woven fabric. Twenty female adults of two-spotted spider mite were placed on the top of the leaf, and the fabric and leaf were placed in a thermostatic chamber having a temperature of 25±2° C. and a humidity of 40% and 16L8D. The next day, after the number of the female adults was adjusted once more to 20, 2 mL of a miticidal formulation containing the compound of the invention (10 ppm) prepared in the same manner as in test example 1 was sprayed onto the leaf, and the leaf was air-dried and placed in a thermostatic chamber (25±2° C. and a humidity of 50%). The ovicidal rate of the two-spotted spider mites was calculated 6 days after the spraying of the miticidal formulation.

SMILES | mortality at 5 ppm (two-spotted spider mites [1]) | mortality at 100 ppm (two-spotted spider mites [1]) | inhibition at 10 ppm (two-spotted spider mites [2])
Cc1cc(Cl)c(-c2cc(C(F)(F)F)on2)cc1[S+]([O-])CC(F)(F)F (stereo not drawn) [Compound 23, 3-(2-chloro-4-methyl-5-((2,2,2-trifluoroethyl)sulfinyl)phenyl)-5-(trifluoromethyl)isoxazole] | 100% | 100% | 100%
Cc1cc(Cl)c(-c2cc(C(F)(F)Cl)on2)cc1[S+]([O-])CC(F)(F)F (stereo not drawn) [Compound 44, 3-(2-chloro-4-methyl-5-((2,2,2-trifluoroethyl)sulfinyl)phenyl)-5-(chlorodifluoromethyl)isoxazole] | 100% | 100% | 100%
Cc1cc(F)c(-c2cc(C(F)(F)C(F)(F)C(F)(F)F)on2)cc1[S+]([O-])CC(F)(F)F (stereo not drawn) [Compound 8, 3-(2-fluoro-4-methyl-5-((2,2,2-trifluoroethyl)sulfinyl)phenyl)-5-(heptafluoropropyl)isoxazole] | 100% | 100% | 90%
Cc1cc(F)c(-c2cc(C(F)(F)Cl)on2)cc1[S+]([O-])CC(F)(F)F (stereo not drawn) [Compound 17, 5-(chlorodifluoromethyl)-3-(2-fluoro-4-methyl-5-((2,2,2-trifluoroethyl)sulfinyl)phenyl)isoxazole] | 98% | 100% | 100%
Cc1cc(Cl)c(-c2cc(C(F)(F)F)on2)cc1SCC(F)(F)F [Compound 22, 3-(2-chloro-4-methyl-5-((2,2,2-trifluoroethyl)thio)phenyl)-5-(trifluoromethyl)isoxazole] | 73% | 100% | 
Cc1cc(F)c(-c2cc(C(F)(F)F)on2)cc1[S+]([O-])CC(F)(F)F (stereo not drawn) [Compound 2, 3-(2-fluoro-4-methyl-5-((2,2,2-trifluoroethyl)sulfinyl)phenyl)-5-(trifluoromethyl)isoxazole] | 100% | 100% | 100%
Cc1cc(C)c([S+]([O-])CC(F)(F)F)cc1-c1cc(C(F)(F)F)on1 (stereo not drawn) [Compound 26, 3-(2,4-dimethyl-5-((2,2,2-trifluoroethyl)sulfinyl)phenyl)-5-(trifluoromethyl)isoxazole] | 98% | 100% | 90%
Cc1cc(Cl)c(-c2cc(C(F)F)on2)cc1SCC(F)(F)F [Compound 55, 3-(2-chloro-4-methyl-5-((2,2,2-trifluoroethyl)thio)phenyl)-5-(difluoromethyl)isoxazole] | 100% | 100% | 100%
Cc1cc(F)c(-c2cc(C(F)(F)C(F)(F)F)on2)cc1[S+]([O-])CC(F)(F)F (stereo not drawn) [Compound 5, 3-(2-fluoro-4-methyl-5-((2,2,2-trifluoroethyl)sulfinyl)phenyl)-5-(perfluoroethyl)isoxazole] | 95% | 100% | 90%
Cc1cc(Cl)c(-c2cc(C(F)(F)c3ccccc3)on2)cc1[S+]([O-])CC(F)(F)F (stereo not drawn) [Compound 53, 3-(2-chloro-4-methyl-5-((2,2,2-trifluoroethyl)sulfinyl)phenyl)-5-(difluoro(phenyl)methyl)isoxazole] | 64% | 100% | 90%
Cc1cc(F)c(-c2cc(C(F)(F)F)on2)cc1SCC(F)(F)F [Compound 1, 3-(2-fluoro-4-methyl-5-((2,2,2-trifluoroethyl)thio)phenyl)-5-(trifluoromethyl)isoxazole] | 30% | 100% | 
CCC[S+]([O-])c1cc(-c2cc(C(F)(F)F)on2)c(F)cc1C (stereo not drawn) [Compound 35, 3-(2-fluoro-4-methyl-5-(propylsulfinyl)phenyl)-5-(trifluoromethyl)isoxazole] | 100% | 100% | 100%
Cc1cc(C)c(-c2cc(C(F)(F)F)on2)cc1SCC(F)(F)F [Compound 25, 3-(2,4-dimethyl-5-((2,2,2-trifluoroethyl)thio)phenyl)-5-(trifluoromethyl)isoxazole] | 10% | 100% | 
Cc1cc(F)c(-c2cc(C(F)F)on2)cc1[S+]([O-])CC(F)(F)F (stereo not drawn) [Compound 14, 5-(difluoromethyl)-3-(2-fluoro-4-methyl-5-((2,2,2-trifluoroethyl)sulfinyl)phenyl)isoxazole] | 40% | 100% | 50%
Cc1cc(C)c(-c2cc(C(F)F)on2)cc1SCC(F)(F)F [Compound 46, 5-(difluoromethyl)-3-(2,4-dimethyl-5-((2,2,2-trifluoroethyl)thio)phenyl)isoxazole] | 79% | 100% | 83%
Cc1cc(F)c(-c2cc(C(F)F)on2)cc1SCC(F)(F)F [Compound 13, 5-(difluoromethyl)-3-(2-fluoro-4-methyl-5-((2,2,2-trifluoroethyl)thio)phenyl)isoxazole] | 48% | 100% | 98%
Cc1cc(C)c([S+]([O-])CC(F)(F)F)cc1-c1cc(C(F)(F)Cl)on1 (stereo not drawn) [Compound 50, 5-(chlorodifluoromethyl)-3-(2,4-dimethyl-5-((2,2,2-trifluoroethyl)sulfinyl)phenyl)isoxazole] | 96% | 100% | 97%
Cc1ccc(-c2cc(C(F)(F)F)on2)cc1SCC(F)(F)F [Compound A, reference compound] | 0% | 100% | 0%
Cc1cc(F)c(-c2noc(C(F)(F)F)c2C)cc1[S+]([O-])CC(F)(F)F (stereo not drawn) [Compound 38, 3-(2-fluoro-4-methyl-5-((2,2,2-trifluoroethyl)sulfinyl)phenyl)-4-methyl-5-(trifluoromethyl)isoxazole] | 100% | 100% | 100%
Cc1cc(C)c(-c2cc(C(F)(F)c3ccccc3)on2)cc1SCC(F)(F)F [Compound 40, 5-(difluoro(phenyl)methyl)-3-(2,4-dimethyl-5-((2,2,2-trifluoroethyl)thio)phenyl)isoxazole] | 33% | 100% | 89%
Cc1cc(Cl)c(-c2cc(C(F)(F)c3ccccc3)on2)cc1SCC(F)(F)F [Compound 52, 3-(2-chloro-4-methyl-5-((2,2,2-trifluoroethyl)thio)phenyl)-5-(difluoro(phenyl)methyl)isoxazole] | 61% | 100% | 32%
Cc1cc(C)c(-c2cc(C(F)(F)Cl)on2)cc1SCC(F)(F)F [Compound 49, 5-(chlorodifluoromethyl)-3-(2,4-dimethyl-5-((2,2,2-trifluoroethyl)thio)phenyl)isoxazole] | 6% | 100% | 0%
Cc1cc(F)c(-c2cc(C(F)(F)c3ccccc3)on2)cc1SCC(F)(F)F [Compound 19, 5-(difluoro(phenyl)methyl)-3-(2-fluoro-4-methyl-5-((2,2,2-trifluoroethyl)thio)phenyl)isoxazole] | 100% | 100% | 100%
Cc1cc(Cl)c(-c2cc(C(F)F)on2)cc1[S+]([O-])CC(F)(F)F (stereo not drawn) [Compound 56, 3-(2-chloro-4-methyl-5-((2,2,2-trifluoroethyl)sulfinyl)phenyl)-5-(difluoromethyl)isoxazole] | 100% | 100% | 100%
Cc1cc(Cl)c(-c2cc(C(F)(F)Cl)on2)cc1SCC(F)(F)F [Compound 43, 3-(2-chloro-4-methyl-5-((2,2,2-trifluoroethyl)thio)phenyl)-5-(chlorodifluoromethyl)isoxazole] | 100% | 100% | 100%
Cc1cc(F)c(-c2cc(C(F)(F)c3ccccc3)on2)cc1[S+]([O-])CC(F)(F)F (stereo not drawn) [Compound 20, 5-(difluoro(phenyl)methyl)-3-(2-fluoro-4-methyl-5-((2,2,2-trifluoroethyl)sulfinyl)phenyl)isoxazole] | 93% | 100% | 95%
Cc1cc(C)c([S+]([O-])CC(F)(F)F)cc1-c1cc(C(F)F)on1 (stereo not drawn) [Compound 47, 5-(difluoromethyl)-3-(2,4-dimethyl-5-((2,2,2-trifluoroethyl)sulfinyl)phenyl)isoxazole] | 51% | 100% | 80%

— US11116218B2, “Isoxazole compound or a salt thereof” (OAT AGRIO CO., LTD., priority 2017, dated 2021)
